Reference: PubChem BioAssay AID256 (DTP/NCI, 2004)
“And” between values parts separate entries of the source, which are not always exact repeats. Equal entries are not always repeated. Inconclusive results and toxic doses are left out.

Tested on: CD2F1 mice, L1210 leukemia ip, survival T/C
Experiment: NCI In Vivo Anticancer Drug Screen. Data for tumor model L1210 Leukemia (intraperitoneal) in CD2F1 (CDF1) mice
Conditions: higher = longer survival
Method in brief: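 Mice carrying a transplanted tumor received test compound or vehicle alone. The value is the measurement in the treated group divided by that in the vehicle-treated control group.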

[1] = endpoint: mean survival time, dose: 100.0 mg/kg/injection, schedule: Q04DX002 (ip), vehicle: saline
[2] = endpoint: mean survival time, dose: 200.0 mg/kg/injection, schedule: Q04DX002 (ip), vehicle: saline
[3] = endpoint: mean survival time, dose: 400.0 mg/kg/injection, schedule: Q04DX002 (ip), vehicle: saline
[4] = endpoint: mean survival time, dose: 100.0 mg/kg/injection, schedule: Q04DX002 (ip), vehicle: saline with Tween-80
[5] = endpoint: mean survival time, dose: 100.0 mg/kg/injection, schedule: Q01DX009 (ip), vehicle: saline with Tween-80
[6] = endpoint: mean survival time, dose: 200.0 mg/kg/injection, schedule: Q01DX009 (ip), vehicle: saline with Tween-80
[7] = endpoint: mean survival time, dose: 400.0 mg/kg/injection, schedule: Q01DX009 (ip), vehicle: saline with Tween-80
[8] = endpoint: mean survival time, dose: 100.0 mg/kg/injection, schedule: Q04DX003 (ip), vehicle: saline with Tween-80
[9] = endpoint: mean survival time, dose: 200.0 mg/kg/injection, schedule: Q04DX003 (ip), vehicle: saline with Tween-80
[10] = endpoint: mean survival time, dose: 400.0 mg/kg/injection, schedule: Q04DX003 (ip), vehicle: saline with Tween-80
[11] = endpoint: mean survival time, dose: 100.0 mg/kg/injection, schedule: Q04DX003 (ip), vehicle: saline
[12] = endpoint: mean survival time, dose: 200.0 mg/kg/injection, schedule: Q04DX003 (ip), vehicle: saline
[13] = endpoint: mean survival time, dose: 400.0 mg/kg/injection, schedule: Q04DX003 (ip), vehicle: saline

O=C1CC2(C(=O)N1CN1CCOCC1)c1ccccc1-c1ccccc12
T/C (endpoint: median survival time, dose: 25.0 mg/kg/injection, schedule: Q01DX009 (ip), vehicle: Klucel (hydroxypropylcellulose) (HPC)): 103 % of control
T/C (endpoint: median survival time, dose: 50.0 mg/kg/injection, schedule: Q01DX009 (ip), vehicle: Klucel (hydroxypropylcellulose) (HPC)): 102 % of control
T/C (endpoint: median survival time, dose: 100.0 mg/kg/injection, schedule: Q01DX009 (ip), vehicle: Klucel (hydroxypropylcellulose) (HPC)): 96 % of control
T/C (endpoint: median survival time, dose: 200.0 mg/kg/injection, schedule: Q01DX009 (ip), vehicle: Klucel (hydroxypropylcellulose) (HPC)): 100 % of control
T/C (endpoint: median survival time, dose: 400.0 mg/kg/injection, schedule: Q01DX009 (ip), vehicle: Klucel (hydroxypropylcellulose) (HPC)): 107 % of control

CN(C)NC=O
T/C [1]: 101 % of control
T/C [2]: 101 % of control
T/C [3]: 101 % of control

CC(=O)Oc1cc2c(OC(C)=O)c(-c3c(C)cc4c(C(C)C)c(OC(C)=O)c(OC(C)=O)cc4c3OC(C)=O)c(C)cc2c(C(C)C)c1OC(C)=O
T/C (endpoint: mean survival time, dose: 25.0 mg/kg/injection, schedule: Q04DX002 (ip), vehicle: saline with Tween-80): 100 % of control
T/C (endpoint: mean survival time, dose: 50.0 mg/kg/injection, schedule: Q04DX002 (ip), vehicle: saline with Tween-80): 96 % of control
T/C [4]: 89 % of control

CNCCNc1ccc(NCCNC)c2c1C(=O)c1ccccc1C2=O
T/C (endpoint: mean survival time, dose: 4.0 mg/kg/injection, schedule: Q01DX009 (ip), vehicle: acid diluted with saline): 150 % of control and 157 % of control
T/C (endpoint: mean survival time, dose: 8.0 mg/kg/injection, schedule: Q01DX009 (ip), vehicle: acid diluted with saline): 187 % of control and 195 % of control
T/C (endpoint: mean survival time, dose: 16.0 mg/kg/injection, schedule: Q01DX009 (ip), vehicle: acid diluted with saline): 177 % of control

C=C(NC(=O)CN)C(=O)O
T/C [4]: 100 % of control
T/C (endpoint: mean survival time, dose: 200.0 mg/kg/injection, schedule: Q04DX002 (ip), vehicle: saline with Tween-80): 95 % of control
T/C (endpoint: mean survival time, dose: 400.0 mg/kg/injection, schedule: Q04DX002 (ip), vehicle: saline with Tween-80): 95 % of control

c1cc2nc(c1)CSCCCCCCCSC2
T/C [5]: 98 % of control
T/C [6]: 90 % of control
T/C [7]: 93 % of control

Nc1ncnc2c1ccn2C1OC(CO)C2[O][Sn]([c]3ccccc3)([c]3ccccc3)[O]C21 (stereo unspecified)
T/C (endpoint: mean survival time, dose: 0.78 mg/kg/injection, schedule: Q01DX005 (ip), vehicle: other): 110 % of control
T/C (endpoint: mean survival time, dose: 1.56 mg/kg/injection, schedule: Q01DX005 (ip), vehicle: other): 113 % of control
T/C (endpoint: mean survival time, dose: 3.13 mg/kg/injection, schedule: Q01DX005 (ip), vehicle: other): 111 % of control
T/C (endpoint: mean survival time, dose: 6.25 mg/kg/injection, schedule: Q01DX005 (ip), vehicle: other): 90 % of control

CCCCSc1cc(C)nc2ccccc12
T/C [4]: 96 % of control

CS(=O)(=O)OCCNC(=O)N(CCCl)N=O
T/C (endpoint: mean survival time, dose: 0.39 mg/kg/injection, schedule: Q01DX009 (ip), vehicle: water): 95 % of control
T/C (endpoint: mean survival time, dose: 0.78 mg/kg/injection, schedule: Q01DX009 (ip), vehicle: water): 108 % of control
T/C (endpoint: mean survival time, dose: 3.13 mg/kg/injection, schedule: Q01DX009 (ip), vehicle: water): 193 % of control
T/C (endpoint: mean survival time, dose: 5.0 mg/kg/injection, schedule: Q01DX001 (ip), vehicle: distilled water + Tween-80): 120 % of control
T/C (endpoint: mean survival time, dose: 6.25 mg/kg/injection, schedule: Q01DX009 (ip), vehicle: water): 356 % of control
T/C (endpoint: mean survival time, dose: 20.0 mg/kg/injection, schedule: Q01DX001 (ip), vehicle: distilled water + Tween-80): 216 % of control and 342 % of control
T/C (endpoint: mean survival time, dose: 40.0 mg/kg/injection, schedule: Q01DX001 (ip), vehicle: distilled water + Tween-80): 311 % of control and 500 % of control

CCCCCCCCCCCCCCCCCCCC
T/C (endpoint: mean survival time, dose: 25.0 mg/kg/injection, schedule: Q04DX003 (ip), vehicle: other): 90 % of control
T/C (endpoint: mean survival time, dose: 50.0 mg/kg/injection, schedule: Q04DX003 (ip), vehicle: other): 91 % of control
T/C (endpoint: mean survival time, dose: 100.0 mg/kg/injection, schedule: Q04DX003 (ip), vehicle: other): 88 % of control

CCOC(=O)CN1CC(=O)Nc2ccccc21
T/C [8]: 95 % of control
T/C [9]: 98 % of control
T/C [10]: 111 % of control

COC(=O)C1(C)CCCC2(C)C1CCC13OCC(CC21)C(=C(C)C)C3OC(C)=O (stereo unspecified)
T/C [8]: 100 % of control
T/C [9]: 95 % of control
T/C [10]: 100 % of control

CCOC(=O)/C=C(\C)N1CCCCC1
T/C [11]: 92 % of control
T/C [12]: 91 % of control
T/C [13]: 94 % of control

COc1cc(/C=C/c2ccccn2)cc(OC)c1OC
T/C [8]: 101 % of control
T/C [9]: 91 % of control

Cn1c(=O)c2c(nc(Br)n2CC(=O)CF)n(C)c1=O
T/C (endpoint: mean survival time, dose: 12.5 mg/kg/injection, schedule: Q01DX005 (ip), vehicle: distilled water + Tween-80): 97 % of control and 100 % of control and 104 % of control
T/C (endpoint: mean survival time, dose: 25.0 mg/kg/injection, schedule: Q01DX005 (ip), vehicle: distilled water + Tween-80): 97 % of control (2×) and 105 % of control
T/C (endpoint: mean survival time, dose: 50.0 mg/kg/injection, schedule: Q01DX005 (ip), vehicle: distilled water + Tween-80): 94 % of control and 95 % of control
T/C (endpoint: mean survival time, dose: 100.0 mg/kg/injection, schedule: Q01DX005 (ip), vehicle: distilled water + Tween-80): 97 % of control (2×) and 112 % of control
T/C (endpoint: mean survival time, dose: 200.0 mg/kg/injection, schedule: Q01DX005 (ip), vehicle: distilled water + Tween-80): 93 % of control and 95 % of control

NCCc1ccncc1
T/C [1]: 92 % of control
T/C [2]: 92 % of control
T/C [3]: 111 % of control

O=C1C=CC(=O)c2c(Cl)ccc(O)c21
T/C (endpoint: mean survival time, dose: 3.13 mg/kg/injection, schedule: Q04DX002 (ip), vehicle: other): 102 % of control
T/C (endpoint: mean survival time, dose: 6.25 mg/kg/injection, schedule: Q04DX002 (ip), vehicle: other): 102 % of control
T/C (endpoint: mean survival time, dose: 12.5 mg/kg/injection, schedule: Q04DX002 (ip), vehicle: other): 96 % of control and 102 % of control

Cn1/c2cc/c1=C(\c1ccc(S(=O)(=O)O)cc1)c1ccc([n-]1)/C(c1ccc(S(=O)(=O)O)cc1)=c1/cc/c([nH]1)=C(\c1ccc(S(=O)(=O)O)cc1)c1ccc([n-]1)/C=2c1ccc(S(=O)(=O)O)cc1.O.O=S(=O)(O)C(F)(F)F.[Cu+2]
T/C (endpoint: median survival time, dose: 6.25 mg/kg/injection, schedule: Q01DX009 (ip), vehicle: saline): 101 % of control
T/C (endpoint: median survival time, dose: 12.5 mg/kg/injection, schedule: Q01DX009 (ip), vehicle: saline): 104 % of control
T/C (endpoint: median survival time, dose: 25.0 mg/kg/injection, schedule: Q01DX009 (ip), vehicle: saline): 103 % of control
T/C (endpoint: median survival time, dose: 50.0 mg/kg/injection, schedule: Q01DX009 (ip), vehicle: saline): 112 % of control
T/C (endpoint: median survival time, dose: 100.0 mg/kg/injection, schedule: Q01DX009 (ip), vehicle: saline): 103 % of control

Cc1ncc2c(=O)[nH]cnc2n1
T/C [8]: 93 % of control
T/C [9]: 91 % of control
T/C [10]: 90 % of control

C[Si](C)(CCl)N[Si](C)(C)CCl
T/C [5]: 100 % of control
T/C [8]: 98 % of control
T/C [6]: 97 % of control
T/C [9]: 96 % of control
T/C [7]: 100 % of control
T/C [10]: 102 % of control

CCOC(=O)C12CC=CC(CCC1)/C2=N\Nc1ccccc1 (stereo unspecified)
T/C [5]: 108 % of control
T/C [8]: 105 % of control
T/C [6]: 103 % of control
T/C [9]: 103 % of control
T/C [7]: 103 % of control
T/C [10]: 92 % of control

NCC(O)c1ccc(O)c(O)c1 (stereo unspecified)
T/C (endpoint: mean survival time, dose: 0.5 mg/kg/injection, schedule: Q01DX009 (ip), vehicle: saline): 98 % of control
T/C (endpoint: mean survival time, dose: 0.75 mg/kg/injection, schedule: Q01DX001 (ip), vehicle: saline): 106 % of control
T/C (endpoint: mean survival time, dose: 1.0 mg/kg/injection, schedule: Q01DX009 (ip), vehicle: saline): 109 % of control
T/C (endpoint: mean survival time, dose: 1.5 mg/kg/injection, schedule: Q01DX001 (ip), vehicle: saline): 98 % of control
T/C (endpoint: mean survival time, dose: 2.0 mg/kg/injection, schedule: Q01DX009 (ip), vehicle: saline): 98 % of control
T/C (endpoint: mean survival time, dose: 3.0 mg/kg/injection, schedule: Q01DX001 (ip), vehicle: saline): 101 % of control
T/C (endpoint: mean survival time, dose: 4.0 mg/kg/injection, schedule: Q01DX009 (ip), vehicle: saline): 113 % of control
T/C (endpoint: mean survival time, dose: 6.0 mg/kg/injection, schedule: Q01DX001 (ip), vehicle: saline): 104 % of control
T/C (endpoint: mean survival time, dose: 8.0 mg/kg/injection, schedule: Q01DX009 (ip), vehicle: saline): 100 % of control
T/C (endpoint: mean survival time, dose: 12.0 mg/kg/injection, schedule: Q01DX001 (ip), vehicle: saline): 100 % of control

CC1(C)CC(=O)C=C(N)C1
T/C [5]: 100 % of control
T/C [6]: 97 % of control
T/C [7]: 108 % of control

O=C(O)c1ccc(C(=O)O)c2c(C(=O)O)ccc(C(=O)O)c12
T/C [5]: 95 % of control
T/C [11]: 97 % of control
T/C [6]: 90 % of control
T/C [12]: 96 % of control
T/C [13]: 93 % of control

CCOC(=O)C(C(C)=O)c1cc(NS(=O)(=O)c2ccccc2)ccc1O (stereo unspecified)
T/C [8]: 114 % of control
T/C [9]: 103 % of control
T/C [10]: 105 % of control

CC1CCC(C(O)(C(=O)c2ccccc2)c2ccccc2)C(=O)C1 (stereo unspecified)
T/C [5]: 100 % of control
T/C [6]: 98 % of control
T/C [7]: 98 % of control
